Measured values published in US8552176B2 (priority 2010, dated 2013).

What was measured:
Experiment in all cases: cells
Format in all cases: cell-based, human
A549 = settings: read-out: GI50 A549 lung (+p53)
H1299 = settings: read-out: GI50 H1299 lung (−p53)
NCI-H460 = settings: read-out: GI50 NCI-H460 lung
HCT-15 = settings: read-out: GI50 HCT-15 colorectal
HT29 = settings: read-out: GI50 HT29 colorectal
Hep3b = settings: read-out: GI50 Hep3b liver
MCF7 = settings: read-out: GI50 MCF7 breast
DU-145 = settings: read-out: GI50 DU-145 prostate
SF-268 = settings: read-out: GI50 SF-268 CNS
SKOV3 = settings: read-out: GI50 SKOV3 ovary

| SMILES | GI50 (A549) [µM] | GI50 (H1299) [nM] | GI50 (NCI-H460) [µM] | GI50 (HCT-15) [nM] | GI50 (HT29) [nM] | GI50 (Hep3b) [µM] | GI50 (MCF7) [µM] | GI50 (DU-145) [µM] | GI50 (SF-268) [nM] | GI50 (SKOV3) [nM] |
| --- | --- | --- | --- | --- | --- | --- | --- | --- | --- | --- |
| CON(CCCCc1ccc(N(CCCl)CCCl)cc1)C1CC(O)C(O)CO1 (mixture of isomers) [Compound 55] | 2.6 ± 0.2 | 3700 ± 200 | 5.8 ± 0.6 | 2300 ± 100 | 2600 ± 100 | 2.6 ± 0.1 | 0.96 ± 0.02 | 4 ± 0.1 | 2100 ± 100 | 2000 ± 100 |
| CON(CCCCc1ccc(N(CCCl)CCCl)cc1)C1CC(O)C(O)CO1 (mixture of isomers) [Compound 56] | 2.5 ± 0.1 | 3900 ± 500 | 5.2 ± 0.6 | 2200 ± 100 | 2300 ± 100 | 2.5 ± 0.1 | 1.3 ± 0.2 | 3.3 ± 0.1 | 2000 ± 100 | 2200 ± 100 |
| CC(=O)OC1COC(N(CCCCc2ccc(N(CCCl)CCCl)cc2)OC(C)=O)C(OC(C)=O)C1OC(C)=O (mixture of isomers) [Compound 69, N-Acetoxy-4-(4-N′,N′-bis(2-chloroethyl)amino)phenylbutylamino-D-riboside peracetate] | 1.12 ± 0.07 | 1050 ± 50 | 1.3 ± 0.1 | 1100 ± 100 | 960 ± 70 | > 5 | 4.6 ± 0.3 | > 5 | 1600 ± 100 | 530 ± 10 |
| O=C(CCCc1ccc(N(CCCl)CCCl)cc1)NN=CC(O)C(O)CO (mixture of isomers) [Compound 74, 4-(4-N′,N′-bis(2-chloroethyl)amino)phenylbutylhydrazido-D-threoside inline] | 7.5 ± 0.5 | 2600 ± 200 | 10.8 ± 0.8 | 7300 ± 400 | 4800 ± 100 | 4.1 ± 0.4 | 4.2 ± 0.2 | 9.5 ± 0.7 | 2600 ± 200 | 6200 ± 600 |
| CON(CCCCc1ccc(N(CCCl)CCCl)cc1)C1OC(COCc2ccccc2)C(OCc2ccccc2)C1OCc1ccccc1 (stereo not drawn) [Compound 16] | > 100 | > 100000 | > 100 | 64000 ± 8000 | 47000 ± 1000 | > 100 | 82 ± 1 | > 100 | 80000 ± 5000 | > 100000 |
| CON(CCCCc1ccc(N(CCCl)CCCl)cc1)C1OCC(O)C1O (stereo not drawn) [Compound 19] | 3.1 ± 0.8 | 1100 ± 100 | 7.8 ± 0.9 | 770 ± 90 | 1600 ± 100 | 4.1 ± 0.9 | 8 ± 0.1 | 5 ± 0.7 | 2400 ± 800 | 2600 ± 900 |
| CON(CCCCc1ccc(N(CCCl)CCCl)cc1)C1OC(CO)C(O)C(O)C1O (stereo not drawn) [Compound 28] | 4.5 ± 0.2 | 1400 ± 100 | 12.3 ± 0.7 | 2800 ± 200 | 2900 ± 400 | 3.4 ± 0.1 | 1.5 ± 0.1 | 5.5 ± 0.2 | 1800 ± 100 | 3000 ± 100 |
| CON(CCCCc1ccc(N(CCCl)CCCl)cc1)C1OC(CO)C(O)C(O)C1O (stereo not drawn) [Compound 29] | 6.8 ± 0.8 | 1600 ± 100 | 14.3 ± 0.9 | 2800 ± 200 | 4600 ± 400 | 5 ± 0.6 | 1.8 ± 0.2 | 7 ± 0.5 | 2200 ± 100 | 4500 ± 600 |
| CON(CCCCc1ccc(N(CCCl)CCCl)cc1)C1CC(O)C(O)C(CO)O1 (stereo not drawn) [Compound 30] | 3.1 ± 0.5 | 580 ± 60 | 5.4 ± 0.6 | 700 ± 50 | 1200 ± 200 | 3.7 ± 0.3 | 5.4 ± 0.1 | 4.3 ± 0.3 | 2500 ± 500 | 1120 ± 100 |
| CON(CCCCc1ccc(N(CCCl)CCCl)cc1)C1OC(CO)C(O)C(O)C1F (stereo not drawn) [Compound 31] | 2.6 ± 0.1 | 1200 ± 100 | 6.4 ± 0.07 | 1080 ± 40 | 2400 ± 200 | 3.2 ± 0.1 | 7.3 ± 0.1 | 4.2 ± 0.1 | 2200 ± 100 | 2000 ± 100 |
| CON(CCCCc1ccc(N(CCCl)CCCl)cc1)C1OC(CO)C(O)C(F)C1O (stereo not drawn) [Compound 32] | 3 ± 0.1 | 1300 ± 100 | 7.1 ± 0.9 | 1200 ± 100 | 2600 ± 200 | 3.2 ± 0.1 | 7 ± 0.8 | 4.1 ± 0.1 | 2200 ± 100 | 2200 ± 100 |
| COC1C(O)C(CO)OC(N(CCCCc2ccc(N(CCCl)CCCl)cc2)OC)C1O (stereo not drawn) [Compound 33] | 3.6 ± 0.2 | 1700 ± 100 | 7.8 ± 0.08 | 1100 ± 100 | 2700 ± 200 | 4.2 ± 0.2 | 8.3 ± 0.1 | 5.1 ± 0.1 | 2800 ± 100 | 2400 ± 100 |
| C=CCOC(=O)NCC1OC(N(CCCCc2ccc(N(CCCl)CCCl)cc2)OC)C(O)C(O)C1O (stereo not drawn) [Compound 35] | 4.5 ± 0.3 | 2100 ± 100 | 11 ± 0.1 | 2100 ± 100 | 2800 ± 200 | 4.6 ± 0.2 | 7.4 ± 0.1 | 6.2 ± 0.4 | 3100 ± 100 | 2900 ± 100 |
| CON(CCCCc1ccc(N(CCCl)CCCl)cc1)C1OC(CCl)C(O)C(O)C1O (stereo not drawn) [Compound 36] | 3 ± 0.1 | 1300 ± 100 | 5.8 ± 0.6 | 1200 ± 100 | 2100 ± 100 | 3.2 ± 0.2 | 4.9 ± 0.1 | 3.7 ± 0.1 | 2100 ± 100 | 2100 ± 100 |
| CON(CCCCc1ccc(N(CCCl)CCCl)cc1)C1OC(C(=O)O)C(O)C(O)C1O (stereo not drawn) [Compound 38] | 5.5 ± 0.3 | 990 ± 30 | 9.1 ± 0.9 | 1030 ± 50 | 3200 ± 300 | 4.9 ± 0.3 | 6 ± 0.1 | 3.9 ± 0.1 | 1600 ± 100 | 3100 ± 100 |
| CON(CCCCc1ccc(N(CCCl)CCCl)cc1)C1O[C@H](CO)[C@@H](O[C@@H]2O[C@H](CO)[C@H](O)[C@H](O)[C@H]2O)[C@H](O)[C@@H]1O (stereo partly drawn) [Compound 46] | 56 ± 1 | 24000 ± 1000 | 57.7 ± 0.5 | 31000 ± 1000 | 34000 ± 3000 | 38 ± 2 | 26 ± 2 | 43 ± 3 | 19100 ± 700 | 35000 ± 1000 |
| CON(CCCCc1ccc(N(CCCl)CCCl)cc1)[C@@H]1O[C@H](CO[C@H]2O[C@H](CO)[C@H](O)[C@H](O)[C@H]2O)[C@@H](O)[C@H](O)[C@H]1O [Compound 47] | 40 ± 2 | 17800 ± 60 | 45.5 ± 0.4 | 20000 ± 1000 | 27400 ± 300 | 29 ± 3 | 21 ± 2 | 36 ± 1 | 16300 ± 500 | 27000 ± 1000 |
| CON(CCCCc1ccc(N(CCCl)CCCl)cc1)[C@@H]1O[C@H](CO)[C@@H](O)[C@H](O[C@H](C)C(=O)O)[C@H]1NC(C)=O [Compound 48] | 8.6 ± 0.6 | 2400 ± 200 | 13.1 ± 0.3 | 3100 ± 200 | 6300 ± 300 | 8 ± 0.4 | 4.5 ± 0.3 | 8.9 ± 0.3 | 4100 ± 100 | 7000 ± 200 |
| CO[C@@H]1[C@@H](OC(N)=O)[C@@H](O)C(N(CCCCc2ccc(N(CCCl)CCCl)cc2)OC)OC1(C)C (stereo partly drawn) [Compound 49] | 5.8 ± 0.8 | 1300 ± 200 | 9.7 ± 0.5 | 1700 ± 200 | 6000 ± 100 | 6 ± 1 | 4.8 ± 0.9 | 6.7 ± 0.5 | 5100 ± 800 | 5400 ± 800 |
| CON(CCCCc1ccc(N(CCCl)CCCl)cc1)C1CC(O)C(O)C(C)O1 (stereo not drawn) [Compound 50] | 3.1 ± 0.2 | 4800 ± 500 | 5.7 ± 0.6 | 2500 ± 200 | 3200 ± 200 | 3.8 ± 0.2 | 3.1 ± 0.2 | 5.5 ± 0.1 | 2300 ± 800 | 3200 ± 100 |
| CON(CCCCc1ccc(N(CCCl)CCCl)cc1)C1OC(C)C(OC(C)=O)C(OC(C)=O)C1OC(C)=O (stereo not drawn) [Compound 52] | 3.5 ± 0.1 | 5000 ± 400 | 7.8 ± 0.8 | 3700 ± 200 | 4300 ± 200 | 4.6 ± 0.2 | 3.2 ± 0.6 | 4.5 ± 0.1 | 3000 ± 100 | 3900 ± 100 |
| CON(CCCCc1ccc(N(CCCl)CCCl)cc1)C1OC[C@H](O)[C@H](O)[C@@H]1O (stereo partly drawn) [Compound 54, N-Methoxy-4-(4-N′,N′-bis(2-chloroethyl)amino)phenylbutylamino-L-riboside] | 2.4 ± 0.1 | 3300 ± 200 | 5.7 ± 0.6 | 2100 ± 100 | 2200 ± 100 | 2.4 ± 0.1 | 0.97 ± 0.02 | 3.7 ± 0.1 | 2100 ± 200 | 2000 ± 100 |
| CON(CCCCc1ccc(N(CCCl)CCCl)cc1)C1OC(COCc2ccccc2)C(OCc2ccccc2)C1OCc1ccccc1 (stereo not drawn) [Compound 57] | > 100 | 82000 ± 7000 | > 100 | > 100000 | > 100000 | > 100 | > 100 | > 100 | > 100000 | > 100000 |
| CON(CCCCc1ccc(N(CCCl)CCCl)cc1)[C@H]1O[C@H](CO)[C@H](O)[C@H](O)[C@@H]1O [Compound 58] | 2.6 ± 0.1 | 3000 ± 300 | 5 ± 0.6 | 2200 ± 100 | 1800 ± 400 | 2.4 ± 0.1 | 1.5 ± 0.3 | 3.3 ± 0.1 | 1700 ± 100 | 2000 ± 100 |
